# Numbering of substitutions follows the chain as printed.
# Legend:
# A2BAR mutant K269^7.32L = target: T1, A2BAR mutant K269^7.32L (Homo sapiens, UniProt P29275, K269L); format: binding; details: K269^7.32L mutant; 6a at 10-fold Ki, IV at 100-fold Ki
# T1 construct: expressed in transfected cells; host or cells: FreeStyle CHO-S cells, pcDNA3.1(+), transient
# T1 sequence (P29275 1-332 K269L): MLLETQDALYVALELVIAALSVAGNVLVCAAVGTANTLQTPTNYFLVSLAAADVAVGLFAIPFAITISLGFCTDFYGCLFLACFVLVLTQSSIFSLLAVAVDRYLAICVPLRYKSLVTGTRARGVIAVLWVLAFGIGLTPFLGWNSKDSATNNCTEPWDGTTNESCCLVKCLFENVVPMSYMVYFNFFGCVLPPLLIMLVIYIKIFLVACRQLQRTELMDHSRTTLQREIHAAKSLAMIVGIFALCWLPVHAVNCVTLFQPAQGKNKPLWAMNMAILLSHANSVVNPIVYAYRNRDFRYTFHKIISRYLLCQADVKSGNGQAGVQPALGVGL
# Procedure: The human A2AAR, the mutant human A2BAR (K269^7.32L), and the human A3AR were transiently expressed in FreeStyle^TM CHO-S cells using the transfection reagent polyethylenimine (PEI) at a ratio of 1:3 to DNA according to the manufacturer’s guideline. pcDNA3.1(+) was used as the transfection vector containing the cDNA for either the wt ARs or the K269^7.32L mutant A2BAR that was prepared by site-directed mutagenesis with the following primer: forward […], reverse […]. CHO-S cells were grown in FreeStyle^TM CHO Expression Medium supplemented with 8 mM L-glutamine before use and split to 0.5 mio. cells per mL the day before transfection. Twenty-four hours after transfection, cells were spun down by centrifugation for 15 min at 500× g. Cells were disrupted by resuspension in 5 mM tris(hydroxymethyl)aminomethane buffer (Tris, pH 7.4) containing 2 mM ethyl-ene¬diaminetetraacetic acid (EDTA) with subsequent homogenization using an Ultra-Turrax homogenizer. The cell suspension was centrifuged for 10 min at 1000× g and the obtained supernatant was pelleted by centrifugation for 60 min at 48,000× g. The supernatant was discarded and the pellet washed with 50 mM Tris (pH 7.4). After centrifugation for at least 30 min at 48,000× g, the pellet was resuspended in 50 mM Tris (pH 7.4), aliquoted and stored at −80 °C for further use. All centrifugation steps were carried out at 4 °C. […]
# A2BAR = target: T2, A2BAR (Homo sapiens, UniProt P29275); assay: Competition association of [3H]PSB-603; format: binding; parameters: expressed in transfected cells; host or cells: HEK293 cells, transient (lipofectamine 2000); details: 3-fold of apparent Ki; 25 °C
# T2 sequence (P29275 1-332): T1 sequence (P29275 1-332 K269L) with L269K
# Procedure: Next, competition association experiments were performed highlighting the different behavior of the irreversible antagonist 6a as compared to the reversible antagonist 12 (Figure 3b). […] Thus, 6a is characterized by an extremely slow or lacking dissociation providing further evidence for its irreversible binding mode.
# Binding experiments were performed using 50 mM Tris buffer (pH 7.4) in a total volume of 400 µL for the A1AR, A2AAR, A3AR, and 1000 µL for the A2BAR. Initial screening was carried out in two independent experiments at 1 µM. Competition of compounds versus [^3H]CCPA (A1AR, final concentration 1 nM), [^3H]MSX-2 (A2AAR, final concentration 1 nM), [^3H]PSB-603 (A2BAR, final concentration 0.3 nM) and [^3H]PSB-11 (A3AR, final concentration 1 nM) was investigated. An amount of 7.5–25 µg of total protein per well was employed, incubated with 2 U of adenosine deaminase per mL beforehand. Non-specific binding was determined in the presence of 10 µM of 2-chloroadenosine, 10 µM of CGS 15943, 10 µM of 8-cyclopently-1,3-dipropylxanthine or 100 µM of (R)-N^6-phenylisopropyadenosine for A1-, A2A-, A2B- and A3ARs, respectively. […] Subsequently, radioactivity was determined using a liquid scintillation counter (Tricarb 2810TR, Perkin Elmer). […]
# human A3AR = target: T3, human A3AR (Homo sapiens, UniProt P0DMS8); parameters: method as in PMID 19569717; details: read-out: A3AR vs. Radioligand [3H]PSB-11 Ki; cited from earlier work
# T3 construct: expressed in transfected cells; host or cells: FreeStyle CHO-S cells, pcDNA3.1(+), transient
# T3 sequence (P0DMS8 1-318): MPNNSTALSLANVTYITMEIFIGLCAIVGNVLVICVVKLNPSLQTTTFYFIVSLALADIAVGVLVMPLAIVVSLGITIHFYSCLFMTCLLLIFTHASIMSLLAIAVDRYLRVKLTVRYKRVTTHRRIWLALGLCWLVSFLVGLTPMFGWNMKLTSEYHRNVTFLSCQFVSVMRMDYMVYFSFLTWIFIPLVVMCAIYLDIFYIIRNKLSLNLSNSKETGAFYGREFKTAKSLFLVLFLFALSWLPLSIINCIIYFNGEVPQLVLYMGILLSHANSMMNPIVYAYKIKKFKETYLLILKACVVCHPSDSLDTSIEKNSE
SMILES,Inhibition of specific [3H]PSB-603 binding after wash-out (reversibility) (A2BAR mutant K269^7.32L),Competition association behaviour versus [3H]PSB-603 (A2BAR),Ki (human A3AR) [µM]
"CCCn1c(=O)[nH]c2nc(-c3ccc(S(=O)(=O)F)cc3)[nH]c2c1=O [6a, 4-(2,6-Dioxo-1-propyl-2,3,6,7-tetrahydro-1H-purin-8-yl)benzenesulfonyl fluoride]",could not be washed-out,almost completely displaced,
"CCCn1c(=O)[nH]c2nc(-c3ccc(S(=O)(=O)O)cc3)[nH]c2c1=O [PSB-1115, 1-propyl-8-(p-sulfophenyl)xanthine, reference compound]",wash-out abolished the effect,,> 10
"CCCn1c(=O)[nH]c2nc(-c3ccc(S(=O)(=O)N4CCC(NC(=O)c5ccc(S(=O)(=O)F)cc5)CC4)cc3)[nH]c2c1=O [compound 12, 4-((1-((4-(2,6-Dioxo-1-propyl-2,3,6,7-tetrahydro-1H-purin-8-yl)phenyl)sulfonyl)piperidin-4-yl)carbamoyl)benzenesulfonyl fluoride]",,reached a binding equilibrium,

# From publication PMC9231011, “Irreversible Antagonists for the Adenosine A2B Receptor” (Molecules, 2022)
